Patent US20090018118A1, “HETEROCYCLIC COMPOUNDS” (priority 2005, published 2009)
Counter-ions that a name gives are not always drawn. Like-named read-outs stand apart in the source and are kept apart here.

Key:
[1] = tested on: cholesterol biosynthesis in HepG2 cells; assay: Metabolic labeling of HepG2 cells with [3H]acetate; radio-HPLC sterol profile (inhibition of cholesterol biosynthesis); format: cell-based, human; conditions: for activity at 10 µM: Homo sapiens, 24 h, Table I, sterol level normalized to normal medium (1.00), mean of 4 experiments; for activity at 10 µM / FF-MAS / cholesterol / desmosterol / lanosterol / lathosterol / zymosterol+7-dehydrocholesterol: 10 μM compound; for FF-MAS / cholesterol / desmosterol / lanosterol / lathosterol / zymosterol+7-dehydrocholesterol: Table II (arranged by sterol profile), normalized to normal medium (1.00); for all sterol levels (in words): relative to normal medium (unity)
Protocol: In accordance with the aims of the invention, the effect of the novel compounds on inhibition of cholesterol biosynthesis is assessed. An ex vivo method of metabolic labeling of immortal human hepatocytes is employed. The radioactively labeled early precursor of cholesterol [3H]acetate is added to cells with or without addition of an active new compound.
An ex vivo method of metabolic labeling of immortal human hepatocytes is employed. The radioactively labeled early precursor of cholesterol [3H]acetate is added to cells with or without addition of an active compound.
Cell culture incubation with potential inhibitors of cholesterol biosynthesis and statins Human hepatoma cell line (HepG2-ATCC No. HB-8065) is split in the recommended ratio (1:2-3) into 75 cm^2 cell flasks using two flasks per experimental condition. Cells are incubated at 37° C. with 5% CO2 in Dulbeco's modified Eagle medium (DMEM high (Sigma)) containing 5% calf serum (Sigma) and 1% L-glutamine (Sigma). After 24-hours-culturing in the growth medium, the medium is replaced with the one supplemented with 10 μM concentration of a LK compound, potential inhibitor of cholesterol biosynthesis. 10 μM solution of atorvastatin, inhibitor of HMG-CoA reductase, serves as a positive control.
After 24 hours the growth medium is changed and [^3H]acetate (NEN™ Life Science Products) added in a concentration of 40 μCi per ml of the medium (400 μCi per flask). After 4 hours cells are harvested using 2 ml of trypsin (Sigma) and the cell pellet is resuspended in 1 ml of distilled water. Cells are homogenized using the freeze and thaw method. From cell homogenate sterols are extracted and protein concentration determined using the Bio-Rad reagent.
Homogenates are transferred into 4 ml glass vial and sterols are extracted in 3 ml of extraction solution (75% n-heptane: 25% isopropanol (vol./vol.)) with ergosterol as an internal standard. For better extraction 100 μl of 0.3M NaH2PO4 (pH=1.0) is added. Closed vials are vigorously shaken (1800 rpm) for 2 hours. After extraction procedure vials are centrifuged (2000 g, 10 min) and the organic phase is transferred to fresh conical glass tubes. Extraction procedure is repeated using 1 ml of extraction solution for 15 min. Organic phases are pooled. Primary extracts are dried in vacuum centrifuge, redissolved in 3 ml of n-heptane, and incubated for 10 min at room temperature with mild shaking. After centrifugation (10 min, 2000 g) extracts are transferred into fresh glass tubes and stored in dark and cold.
The organic phase is dried, reconstituted in mobile phase for reversed phase HPLC separation and loaded onto a-HPLC column, Prism-RPN, 5 μm, 250×4,6 mm running in 100% acetonitrile at 1.00 ml/min at 40° C. temperature. Scintillation liquid is added after UV detection at 30 ml/h, at room temperature, to evaluate tritium labeled sterols on a radio detector.
Sterols are determined by comparing the eluted peaks with runs of commercial standards of lanosterol, ergosterol, desmosterol, zymosterol, 7-dehydrocholesterol, lathosterol and cholesterol or laboratory standards (FF-MAS-4,4-Dimethylcholesta-8(9),14,24-triene-3β-ol- and T-MAS-4,4-Dimethylcholesta8(9),24,diene-3,6-ol, Laboratory of Reproductive Biology, The Juliane Marie Center for Children, Women and Reproduction, University Hospital of Copenhagen, DK-2100 Copenhagen, Denmark). Results were normalized on ergosterol quantity and protein concentration. Results are presented as a mean from 4 separated experiments.
The influence of a 10 μM solution of novel LK-substances on cholesterol biosynthesis in the assay on HepG2 cells is presented in Table I. Compounds are arranged according to the building blocks, three of them are 2-pyridineethanols, 2-pyridineethylpiperazines and pyridinemethylpiperazines.
Normal medium pertains to cell cultures without a compound of the invention. Its sterol levels were used for normalization. 10 μM solution of atorvastatin serves as a positive control.

[2] = HepG2, read-out: zymosterol+7-dehydrocholesterol

melting point [°C] | SMILES | de novo cholesterol biosynthesis (in words) ([1]; 10 μM, HepG2, radio-HPLC chromatograms) | activity at 10 µM ([1]; HepG2, read-out: FF-MAS) [%] | activity at 10 µM ([1]; HepG2, read-out: cholesterol) [%] | activity at 10 µM ([1]; HepG2, read-out: desmosterol) [%] | activity at 10 µM ([1]; HepG2, read-out: lanosterol) [%] | activity at 10 µM ([1]; HepG2, read-out: lathosterol) [%] | activity at 10 µM [1, 2] [%] | FF-MAS ([1]; HepG2) | cholesterol ([1]; HepG2) | desmosterol ([1]; HepG2) | lanosterol ([1]; HepG2) | lathosterol ([1]; HepG2) | zymosterol+7-dehydrocholesterol ([1]; HepG2) | all sterol levels (in words) ([1]; 10 μM, HepG2) | sterol profile (in words) ([1]; 10 μM, HepG2, preferred profile: lowered cholesterol, no accumulation of lanosterol and post-lanosterol intermediates)
219 to 222 | c1ccc(CCN2CCN(CCc3cccnc3)CC2)cc1 (as salt: hydrobromid) [LK-9100, 1-Phenethyl-4-(2-(pyridine-3-yl)ethyl)piperazine trihydrobromide] |  |  |  |  |  |  |  |  |  |  |  |  |  |  | 
212 to 213 | Fc1ccc(CCN2CCN(CCc3ccccn3)CC2)cc1F (as salt: hydrobromid) [LK-9138, 1-(3,4-Difluorophenethyl)-4-(2-(pyridin-2-yl)ethyl)piperazine trihydrobromide] |  |  |  |  |  |  |  |  |  |  |  |  |  |  | 
225 to 228 | FC(F)(F)c1ccc(CN2CCN(CCc3ccccc3)CC2)cn1 (as salt: hydrobromid) [LK-9107, 1-Phenethyl-4-((6(trifluoromethyl)pyridine-3-yl)methyl)piperazine trihydrobromide] |  |  |  |  |  |  |  |  |  |  |  |  |  |  | 
198 to 201 | OC(CN1CCN(c2ccc(F)cc2)CC1)c1cccnc1 (stereo not drawn) (as salt: hydrobromid) [LK-9144, 2-(4-(4-Fluorophenyl)piperazine-1-yl)-1-(pyridine-3-yl)ethanol trihydrobromide] |  |  |  |  |  |  |  |  |  |  |  |  |  |  | 
253 to 255 | Clc1ccc(CCN2CCN(CCc3ccncc3)CC2)cc1Cl (as salt: hydrobromid) [LK-9135, 1-(3,4-Dichlorophenethyl)-4-(2-(pyridin-4-yl)ethyl)piperazine trihydrobromide] |  |  |  |  |  |  |  |  |  |  |  |  |  |  | 
 | CC(C)c1c(C(=O)Nc2ccccc2)c(-c2ccccc2)c(-c2ccc(F)cc2)n1CC[C@@H](O)C[C@@H](O)CC(=O)O [atorvastatin, reference compound] | complete suppression of cholesterol biosynthesis as well as cholesterol precursors | 0 | 0 | 0 | 0 | 0 | 0 | 0.00 | 0.00 | 0.00 | 0.00 | 0.00 | 0.00 |  | 
220 to 223 | OC(CN1CCN(Cc2ccc(F)cc2)CC1)c1cccnc1 (stereo not drawn) (as salt: hydrobromid) [LK-9148, 2-(4-(4-Fluorobenzyl)piperazine-1-yl)-1-(pyridine-3-yl)ethanol trihydrobromide] |  |  |  |  |  |  |  |  |  |  |  |  |  |  | 
 | Fc1ccc(CCN2CCN(CCc3ccncc3)CC2)cc1F [LK-9131, 1-(3,4-di-Fluorophenethyl)-4-(2-(pyridin-4-yl)ethyl)piperazine trihydrobromide] |  | 72 | 0 | 1 | 69 | 5 | 9 | 0.72 | 0.00 | 0.01 | 0.69 | 0.05 | 0.09 | reduce all sterol levels below unity | 
215 to 217 | COc1ccc(CN2CCN(CCc3ccccc3)CC2)cn1 (as salt: hydrobromid) [LK-9106, 1-((6-Methoxypyridin-3-yl)methyl)-4-phenethylpiperazine trihydrobromide] |  |  |  |  |  |  |  |  |  |  |  |  |  |  | 
262 to 264 | c1ccc(CCN2CCN(CCCc3cccnc3)CC2)cc1 (as salt: hydrobromid) [LK-9140, 1-Phenethyl-4-(3-(pyridine-3-yl)propyl)piperazine trihydrobromide] |  |  |  |  |  |  |  |  |  |  |  |  |  |  | 
256 to 259 | Fc1ccc(CCN2CCN(CCc3ccncc3)CC2)cc1F (as salt: hydrobromid) [LK-9131, 1-(3,4-di-Fluorophenethyl)-4-(2-(pyridin-4-yl)ethyl)piperazine trihydrobromide] |  |  |  |  |  |  |  |  |  |  |  |  |  |  | 
 | Clc1ccc(CCN2CCN(CCc3ccncc3)CC2)cc1Cl [LK-9135, 1-(3,4-Dichlorophenethyl)-4-(2-(pyridin-4-yl)ethyl)piperazine trihydrobromide] |  | 27 | 0 | 0 | 43 | 0 | 2 | 0.27 | 0.00 | 0.00 | 0.43 | 0.00 | 0.02 | reduce all sterol levels below unity | 
 | O=C(Cc1cccnc1)N1CCN(CCc2ccccc2)CC1 [LK-9101B, 1-(4-Phenethylpiperazin-1-yl)-2-(pyridine-3-yl)ethanone] |  | 136 | 12 | 10 | 94 | 54 | 155 | 1.36 | 0.12 | 0.10 | 0.94 | 0.54 | 1.55 |  | 
175 to 177 | FC(F)(F)c1cnc(N2CCCN(CCc3ccccc3)CC2)c(Cl)c1 (as salt: hydrobromid) [LK-9115, 1-(3-Chloro-5-(trifluoromethyl)pyridine-2-yl)-4-phenethyl-1,4-diazepane trihydrobromide] |  |  |  |  |  |  |  |  |  |  |  |  |  |  | 
 | Fc1ccc(CCN2CCN(CCc3ccccn3)CC2)cc1F [LK-9138, 1-(3,4-Difluorophenethyl)-4-(2-(pyridin-2-yl)ethyl)piperazine trihydrobromide] |  | 70 | 1 | 7 | 25 | 8 | 21 | 0.70 | 0.01 | 0.07 | 0.25 | 0.08 | 0.21 | reduce all sterol levels below unity | 
 | FC(F)(F)c1ccc(CN2CCN(CCc3ccccc3)CC2)cn1 [LK-9107, 1-Phenethyl-4-((6(trifluoromethyl)pyridine-3-yl)methyl)piperazine trihydrobromide] |  | 129 | 0 | 0 | 36 | 11 | 20 | 1.29 | 0.00 | 0.00 | 0.36 | 0.11 | 0.20 |  | meets these criteria in considerable extent
 | COc1ccc(CN2CCN(CCc3ccccc3)CC2)cn1 [LK-9106, 1-((6-Methoxypyridin-3-yl)methyl)-4-phenethylpiperazine trihydrobromide] |  | 200 | 0 | 0 | 52 | 31 | 46 | 2.00 | 0.00 | 0.00 | 0.52 | 0.31 | 0.46 |  | 
